Series [1] has as its target T1, Geobacillus thermodenitrificans arabinose isomerase (mGTAI), recombinant, expressed in and purified from Corynebacterium glutamicum mGTAIC001 (Geobacillus thermodenitrificans, UniProt A4IPA1, C449S/N474K).
T1 sequence (A4IPA1 with tags, fused parts or gaps C449S/N474K): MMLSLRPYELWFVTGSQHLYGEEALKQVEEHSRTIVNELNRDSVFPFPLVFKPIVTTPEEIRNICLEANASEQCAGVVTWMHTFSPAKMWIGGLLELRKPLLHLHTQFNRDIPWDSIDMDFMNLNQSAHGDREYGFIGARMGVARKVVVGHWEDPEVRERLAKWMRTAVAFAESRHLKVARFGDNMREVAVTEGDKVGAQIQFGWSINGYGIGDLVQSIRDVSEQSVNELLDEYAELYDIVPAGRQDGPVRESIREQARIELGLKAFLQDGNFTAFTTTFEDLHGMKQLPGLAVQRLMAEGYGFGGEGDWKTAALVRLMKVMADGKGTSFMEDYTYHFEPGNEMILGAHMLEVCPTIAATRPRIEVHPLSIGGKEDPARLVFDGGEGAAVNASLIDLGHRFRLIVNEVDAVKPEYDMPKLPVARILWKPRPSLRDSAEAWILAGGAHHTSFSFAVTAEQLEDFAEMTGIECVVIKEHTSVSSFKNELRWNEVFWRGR
The experiment in a line: Enzyme kinetics of purified recombinant arabinose isomerase (isomerization of galactose into tagatose). The protocol:
The culture solution was centrifuged at 8000×g for 10 minutes and cells were recovered. The cells were resuspended in 50 mM Tris-HCl (pH 7.0) buffer, and used for the protein purification. The cell suspension progressed to cell lysis using a high pressure cell homogenizer T-series (4.0 kW; Constant systems, UK), followed by heat-treatment at […] for 20 minutes. Centrifugation was performed at 10,000×g for 10 minutes to separate the expressed recombinant thermophilic arabinose isomerase.
The separated recombinant enzyme solution was filtered by ultrafiltration (MW: 10,000; Sartorius, U.S.A.) and was purified by Q Sepharose Fast Flow (anion exchange column) (staring buffer: 20 mM Tris-HCl, pH 7.5, elution buffer: 20 mM Tris-HCl (pH 7.5)+500 mM NaCl). The protein was purified by FPLC system and it was analyzed by SDS-PAGE.
The activity of the enzyme was measured by the cystein-carbazol-sulfuric acid method (Dische, Z., and E. Borenfreund., A New Spectrophotometric Method for the Detection and Determination of Keto Sugars and Trioses, J. Biol. Chem., 192:583-587, 1951). The fraction contained in the enzyme solution was analysed by SDS-PAGE.
The activity of the enzyme was measured in the reaction buffer (50 mM Tris-HCl, pH 7.0, 1 mM MnCl2 was added) at 55° C. to 85° C. (at intervals of 5° C.). The activity of the enzyme was measured by the cystein-carbazol-sulfuric acid method (Dische, Z., and E. Borenfreund., A New Spectrophotometric Method for the Detection and Determination of Keto Sugars and Trioses, J. Biol. Chem., 192:583-587, 1951).
To measure the enzyme kinetics of purified arabinose isomerase of the present invention, kinetic parameters were determined at 60° C., 65° C. and 70° C. (table 5).

Substrate in series [2]: OC[C@H]1OC(O)[C@H](O)[C@@H](O)[C@H]1O
The experiment in a line: purified protein, by the assay type.

Values joined by “and” are separate entries in the source; they are usually repeats but may differ in a detail not shown here. Equal values may be shown once.

This is an account of results in patent US8137946B2, “Recombinant GRAS strains expressing thermophilic arabinose isomerase as an active form and method of preparing food grade tagatose by using the same” (CJ Cheiljedang Corporation, priority 2006, dated 2012).

What is called kcat/Km is the turnover number divided by the Michaelis constant. As to `OC[C@H]1OC(O)[C@H](O)[C@@H](O)[C@H]1O` (stereo partly drawn) [galactose], the catalytic efficiency (kcat/Km) was 35 M⁻¹ s⁻¹ and 35 ± 0.67 M⁻¹ s⁻¹ in series [1] (60° C.); 38.3 ± 0.5 M⁻¹ s⁻¹ in series [1] (65° C.); 53.3 M⁻¹ s⁻¹ and 53.3 ± 0.67 M⁻¹ s⁻¹ in series [1] (70° C.). For the same molecule, the νmax in series [1] (60° C.) is 2.5 U/mg and 2.5 ± 0.07 U/mg; in series [1] (65° C.), 6.5 U/mg and 6.5 ± 0.57 U/mg; in series [1] (70° C.) it was 9.1 U/mg and 9.1 ± 1.42 U/mg. Also, the “Km increase (times) relative to 60° C.” value in series [1] (65° C. and 70° C. vs 60° C.) was 2.4 times.

B1: Geobacillus thermodenitrificans arabinose isomerase (mGTAI), recombinant, expressed in and purified from Corynebacterium glutamicum mGTAIC001 (Geobacillus … (protein)
chain: T1 sequence (A4IPA1 with tags, fused parts or gaps C449S/N474K)
In general, Km refers to the substrate concentration at which the rate is half of its maximum. For the molecule B1, the Km in series [2] (other: 60° C.) was found to be 67.0 ± 2.98 mM. For the same molecule, the kcat/Km in series [2] (other: 65° C.) was 38.3 M⁻¹ s⁻¹.
